Experimental data reported in patent US4260551A, “Polyprenyl derivatives” (Sankyo Company Limited, priority 1979, dated 1981).

What was measured:
[1] = test system: male rats (Donryu strain), cysteamine duodenal ulcer; experiment: Anti-cysteamine duodenal ulcer activity; type: in vivo, rat; conditions: for Duodenal ulcer index: score 0-5, control 2.45
Protocol: The test was carried out in accordance with the method described by H. Selye and S. Szabo in Nature, vol. 244, 458 (1973), which is as follows. Male rats (Donryu strain, body weight: 200-220 g) had been fasted overnight, were orally treated with 300 mg/kg of cysteamine to induce duodenal ulcer. The test compounds were orally administered four times, that is, for two days prior to, immediately before and on the day next to the treatment of cysteamine. The animals were killed two days after the treatment of cysteamine, and the duodenal ulcer index*^(3) was determined. The duodenal ulcer indices of the treated group and the control group were compared, and the inhibitory ratios were calculated. |^(*3) Duodenal ulcer index: Ulcer of each animal was |scored according to the |following criteria. |0: no lesion |1: hemorrhagic spots |2: product of longitudinal and latitudinal diameters |(S) ≤ 16 mm^2 |3: product of longitudinal and latitudinal diameters |(S) ≤ 16 mm^2, 16 < (s) ≤ 25 |4: product of longitudinal and latitudinal diameters |(S) ≤ 16 mm^2, (s) > 25 mm^2 |5: perforated ulcer The anti-cysteamine duodenal ulcer activity shown when the compound was orally administered is set out in Table 3.

[2] = test system: male mice (ddY strains), reserpine ulcer; experiment: Anti-reserpine ulcer activity; type: in vivo; conditions: Mus musculus, ip, 18 h, i.p., 5 mice, reserpine 10 mg/kg s.c., read-out: Inhibitory Ratio (ulcer area)
Protocol: The test was carried out in accordance with the method described by C. Blackmann, D. S. Campion and F. N. Fastier in British Journal of Pharmacology and Chemotherapy, vol. 14, 112 (1959), which is as follows:
The test compound was intraperitoneally administered to male mice (ddY strains, body weight: 28-33 g), and, 30 minutes later, reserpine was subcutaneously administered in the dose of 10 mg/kg. After 18 hours from the reserpine administration, the animal was sacrificed, and the stomach was isolated. This stomach was inflated with 2 ml of 0.5% formalin and was fixed. Then, the stomach was opened by cutting along the greater curvature, and the ulcer area*^(1) was measured with a stereoscopic microscope. The ulcer areas of the treated group and the control group were compared, and the inhibitory ratios were calculated.
*(1) ulcer area (mm^2): sum of each ulcer area (longitude×latitude).
The anti-reserpine ulcer activity shown when the test compound was intraperitoneally administered is set out in Table 1.

[3] = test system: Donryu strain male rat; experiment: Acute toxicity, Donryu strain male rat; type: in vivo; conditions: 1,000 mg/kg orally given
Text: (§1) The acute toxicity of the compound A is set out in Table 4.

[4] = test system: male rats (Donryu strain), stress ulcer; experiment: Anti-stress ulcer activity (restraint-immersion); type: in vivo, rat; conditions: for Ulcer index: control 22.3
Protocol: The test was carried out in accordance with the method described by K. takagi and S. Okabe in The Japanese Journal of Pharmacology, vol. 18, 9 (1968), which is as follows:
Male rats (Donryu strain, body weight: 200-220 g) were placed under restraint in a stress cage and immersed vertically in the water bath kept at 23°±1° C. to the height of the xiphoid of the animal. After restraint-immersion for 8 hours, the animals were sacrificed. The stomach was fixed with formalin and measured in its ulcer index *^(2). The ulcer indices of the treated group and the control group were compared, and the inhibitory ratios were calculated. The test compound was orally administered for 3 days prior to and immediately before the restraint-immersion.
*(2) ulcer index (mm): sum of the length of each linear ulcer.
The anti-stress ulcer activity shown when the test compound was orally administered is set out in Table 2.

[5] = test system: ddY strain male mouse; experiment: Acute toxicity, ddY strain male mouse; type: in vivo; conditions: 5,000 mg/kg orally given
Text: as §1

[6] = Arch. int. Pharmacodyn., 1964, 147, 113; cited from earlier work
[7] = 300 mg/kg/day × 4, p.o., Compound A marked *significant inhibition, probability less than 0.05
[8] = 100 mg/kg/day × 4, p.o., Compound A marked *significant inhibition, probability less than 0.05

Q: Which “Inhibitory ratio (duodenal ulcer index)” value ([1]; 100 mg/kg/day × 4, p.o.) does the source give for `CC(C)=CCC/C(C)=C/CC/C(=C/CC/C(C)=C/CO)CO` [Compound A, (E,Z,E)7-hydroxymethyl-3,11,15-trimethyl-2,6,10,14-hexadecatetraen-1-ol] here?
A: The value was 18.

Q: What about the Duodenal ulcer index ([1]; 100 mg/kg/day × 4, p.o.) of the same compound?
A: The Duodenal ulcer index was 2.00.

Q: And the “Inhibitory ratio (duodenal ulcer index)” value [1, 7]?
A: Its value is 34.

Q: What about the Duodenal ulcer index ([1]; 300 mg/kg/day × 4, p.o.) of the same compound?
A: Its Duodenal ulcer index is 1.56.

Q: What about the inhibition in vivo at 100 mg/kg [2] of the same compound?
A: The inhibition in vivo at 100 mg/kg was 68.4%.

Q: What about the Death/Survival [3] of the same compound?
A: Its Death/Survival is 0/5.

Q: And the “Inhibitory ratio (ulcer index)” value ([4]; 10 mg/kg/day × 4, p.o.)?
A: The value was 17.

Q: And the Ulcer index ([4]; 10 mg/kg/day × 4, p.o.)?
A: The Ulcer index was 18.5 mm.

Q: And the “Inhibitory ratio (ulcer index)” value ([4]; 30 mg/kg/day × 4, p.o., *significant inhibition, probability less than 0.05)?
A: Its value is 37.

Q: And the Ulcer index ([4]; 30 mg/kg/day × 4, p.o.)?
A: The Ulcer index was 13.8 mm.

Q: And the “Inhibitory ratio (ulcer index)” value [4, 8]?
A: The value was 43.

Q: What about the Ulcer index ([4]; 100 mg/kg/day × 4, p.o.) of the same compound?
A: Its Ulcer index is 12.7 mm.

Q: And the Death/Survival [5]?
A: Its Death/Survival is 0/5.

Q: Which inhibition in vivo at 100 mg/kg [2] does the source give for `CC(C)=CCC/C(C)=C/CCC(=CCC/C(C)=C/CO)CO` [Compound B, (E,Z,E) & (E,E,E)7-hydroxymethyl-3,11,15-trimethyl-2,6,10,14-hexadecatetraen-1-ol] here?
A: Its inhibition in vivo at 100 mg/kg is 65%.

Q: For `CC(C)=CCC/C(C)=C/CCC(=CCCC(C)=CCO)CO` [Compound C, (E,Z,E), (E,E,E), (Z,Z,E) & (Z,E,E)7-hydroxymethyl-3,11,15-trimethyl-2,6,10,14-hexadecatetraen-1-ol], which inhibition in vivo at 100 mg/kg [2] is on record?
A: The inhibition in vivo at 100 mg/kg was 59%.

Q: For `CC(=O)OC/C=C(\C)CC/C=C(/CC/C=C(\C)CCC=C(C)C)COC(C)=O` [Compound D, (E,Z,E)7-hydroxymethyl-3,11,15-trimethyl-2,6,10,14-hexadecatetraen-1-ol diacetate], which inhibition in vivo at 127 mg/kg [2] is on record?
A: Its inhibition in vivo at 127 mg/kg is 54.2%.

Q: For `CC(C)=CCC/C(C)=C/CC/C(=C/CC/C(C)=C/COC(=O)c1ccccc1)COC(=O)c1ccccc1` [Compound E, (E,Z,E)7-hydroxymethyl-3,11,15-trimethyl-2,6,10,14-hexadecatetraen-1-ol dibenzoate], which inhibition in vivo at 171 mg/kg ([2]; 171 mg/kg) is on record?
A: Its inhibition in vivo at 171 mg/kg is 64.5%.

Q: With `CCCCCCCCCCCC(=O)OC/C=C(\C)CC/C=C(/CC/C=C(\C)CCC=C(C)C)COC(=O)CCCCCCCCCCC` [Compound F, (E,Z,E)7-hydroxymethyl-3,11,15-trimethyl-2,6,10,14-hexadecatetraen-1-ol dilaurate] as the compound, how does the inhibition in vivo at 220 mg/kg ([2]; 220 mg/kg) read?
A: The inhibition in vivo at 220 mg/kg was 63.3%.

Q: Which inhibition in vivo at 109 mg/kg ([2]; 109 mg/kg) does the source give for `COC/C=C(\C)CC/C=C(/CC/C=C(\C)CCC=C(C)C)COC` [Compound G, (E,Z,E)7-hydroxymethyl-3,11,15-trimethyl-2,6,10,14-hexadecatetraen-1-ol dimethyl ether] here?
A: The inhibition in vivo at 109 mg/kg was 45%.

Q: Which inhibition in vivo at 100 mg/kg [2] does the source give for `CC(C)=CCC/C(C)=C/CC/C(=C\CC/C(C)=C/CO)CO` [Compound H, (E,E,E)7-hydroxymethyl-3,11,15-trimethyl-2,6,10,14-hexadecatetraen-1-ol] here?
A: The inhibition in vivo at 100 mg/kg was 57%.

Q: With `CC(=O)OC/C=C(\C)CC/C=C(\CC/C=C(\C)CCC=C(C)C)COC(C)=O` [Compound I, (E,E,E)7-hydroxymethyl-3,11,15-trimethyl-2,6,10,14-hexadecatetraen-1-ol diacetate] as the compound, how does the inhibition in vivo at 127 mg/kg [2] read?
A: The inhibition in vivo at 127 mg/kg was 64.5%.

Q: For `CC(C)=CCC/C(C)=C/CC/C(=C\CC/C(C)=C\CO)CO` [Compound J, (Z,E,E)7-hydroxymethyl-3,11,15-trimethyl-2,6,10,14-hexadecatetraen-1-ol], which inhibition in vivo at 100 mg/kg [2] is on record?
A: The inhibition in vivo at 100 mg/kg was 49.4%.

Q: For `CC(C)=CCC/C(C)=C\CCC(=CCC/C(C)=C/CO)CO` [Compound K, (E,Z,Z) & (E,E,Z)7-hydroxymethyl-3,11,15-trimethyl-2,6,10,14-hexadecatetraen-1-ol], which inhibition in vivo at 100 mg/kg [2] is on record?
A: The inhibition in vivo at 100 mg/kg was 58.7%.

Q: With `CC(C)=CCCC(=CCCC(C)=CCC/C(C)=C/CO)CO` [Compound L, (E,E,E), (E,Z,E), (E,E,Z) & (E,Z,Z)11-hydroxymethyl-3,7,15-trimethyl-2,6,10,14-hexadecatetraen-1-ol] as the compound, how does the inhibition in vivo at 100 mg/kg [2] read?
A: The inhibition in vivo at 100 mg/kg was 55.3%.

Q: Which inhibition in vivo at 77.8 mg/kg ([2]; 77.8 mg/kg) does the source give for `CC(C)=CCCC(=CCC/C(C)=C/CO)CO` [Compound M, (E,Z) & (E,E)7-hydroxymethyl-3,11-dimethyl-2,6,10-dodecatrien-1-ol] here?
A: Its inhibition in vivo at 77.8 mg/kg is 60.1%.

Q: Which inhibition in vivo at 105 mg/kg ([2]; 105 mg/kg) does the source give for `C/C(=C\CC/C(C)=C/CCC(=CCC/C(C)=C/CO)CO)CO` [Compound N, 7,15-Dihydroxymethyl-3,11-dimethyl-2,6,10,14-hexadecatetraen-1-ol] here?
A: Its inhibition in vivo at 105 mg/kg is 64.5%.

Q: For `CC(C)=CCC/C(C)=C/CCC(C)=CCCC(=CCC/C(C)=C/CO)CO` [Compound O, 7-Hydroxymethyl-3,11,15,19-tetramethyl-2,6,10,14,18-eicosapentaen-1-ol], which inhibition in vivo at 122 mg/kg ([2]; 122 mg/kg) is on record?
A: The inhibition in vivo at 122 mg/kg was 74.2%.

Q: For `CC(=O)OC/C=C(\C)CCC=C(CCC=C(C)CC/C=C(\C)CCC=C(C)C)COC(C)=O` [Compound P, 7-Hydroxymethyl-3,11,15,19-tetramethyl-2,6,10,14,18-eicosapentaen-1-ol diacetate], which inhibition in vivo at 150 mg/kg ([2]; 150 mg/kg) is on record?
A: Its inhibition in vivo at 150 mg/kg is 45.7%.

Q: With `CC(C)=CCC/C(C)=C/CCC(C)=CCCC(=CCC/C(C)=C/COC(=O)c1ccccc1)COC(=O)c1ccccc1` [Compound Q, 7-Hydroxymethyl-3,11,15,19-tetramethyl-2,6,10,14,18-eicosapentaen-1-ol dibenzoate] as the compound, how does the inhibition in vivo at 193 mg/kg ([2]; 193 mg/kg) read?
A: The inhibition in vivo at 193 mg/kg was 56.2%.

Q: Which “Inhibitory ratio (duodenal ulcer index)” value [1, 7] does the source give for `CC(C)=CCCC(C)=CCCC(C)=CCCC(=O)OC/C=C(\C)CCC=C(C)C` [Gefarnate, geranyl farnesylacetate, reference compound] here?
A: Its value is 10.

Q: And the Duodenal ulcer index ([1]; 300 mg/kg/day × 4, p.o.)?
A: Its Duodenal ulcer index is 2.20.

Q: And the anti-ulcer activity [6]?
A: Its anti-ulcer activity is “has an anti-ulcer activity”.

Q: And the inhibition in vivo at 100 mg/kg [2]?
A: Its inhibition in vivo at 100 mg/kg is 10%.

Q: What about the “Inhibitory ratio (ulcer index)” value [4, 8] of the same compound?
A: The value was -13.

Q: What about the Ulcer index ([4]; 100 mg/kg/day × 4, p.o.) of the same compound?
A: The Ulcer index was 25.3 mm.

Q: What about the “Inhibitory ratio (ulcer index)” value ([4]; 300 mg/kg/day × 4, p.o.) of the same compound?
A: The value was -57.

Q: And the Ulcer index ([4]; 300 mg/kg/day × 4, p.o.)?
A: Its Ulcer index is 35.0 mm.

Q: For `NC(=O)CC[C@H](N)C(=O)O` [L-Glutamine, reference compound], which “Inhibitory ratio (duodenal ulcer index)” value ([1]; 1000 mg/kg/day × 4, p.o.) is on record?
A: Its value is 31.

Q: What about the Duodenal ulcer index ([1]; 1000 mg/kg/day × 4, p.o.) of the same compound?
A: Its Duodenal ulcer index is 1.70.
